Test results from article PMC10083437, “Small molecules targeting Pin1 as potent anticancer drugs” (Frontiers in Pharmacology, 2023).
Like-named read-outs stand apart in the source and are kept apart here.

Legend:
[1] = target: T1, Pin1 (Homo sapiens, UniProt Q13526); test: SPR (Biacore S200, Pin1 immobilized on CM5); also PPIase assay IC50 […]; format: binding
T1 construct: human Pin1 with C-terminal His tag (pET-30a-pin1, E. coli BL21)

[2] = target: T1, Pin1; test: as above; format: binding; remark: listed apart in the source

T1 sequence (Q13526 whole entry): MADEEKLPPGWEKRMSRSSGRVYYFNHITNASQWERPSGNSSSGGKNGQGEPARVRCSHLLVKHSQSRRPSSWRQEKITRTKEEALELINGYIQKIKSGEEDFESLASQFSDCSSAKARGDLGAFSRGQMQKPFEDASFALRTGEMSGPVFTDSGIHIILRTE

`NS(=O)(=O)c1ccc(-c2[nH]c3ccc(Cl)cc3c2-c2cccc(Cl)c2)cc1` [HWH8-36, 2-(4-aminosulfonylphenyl)-3-(3-chlorophenyl)-5-chloro-indole] gave a Kd [1] of 4.87 µM.

For `NS(=O)(=O)c1ccc(-c2[nH]c3ccc(Cl)cc3c2-c2ccc(Cl)cc2)cc1` [HWH8-33, 2-(4-aminosulfonylphenyl)-3-(4-chlorophenyl)-5-chloro-indole], the Kd [2] was 9.79 µM.
